# Test results taken from patent US9738634B2, “Heterocyclic amide compound and herbicide” (SYNGENTA PARTICIPATIONS AG, priority 2013, dated 2017).
# Legend:
# Format in all cases: in vivo
# [1] = system: green foxtail; test: Test Example 4: weedkilling efficacy by foliar treatment; E: green foxtail; conditions: treatment dosage 315 g/ha
# Procedure: (§1) Testing of Weedkilling Efficacy by Foliar Treatment
# (§2) Sterilized diluvial soil was introduced into 21 cm long, 13 cm wide, 7 cm deep plastic boxes, and seeds of crabgrass, green foxtail, barnyard grass, wild oat, black-grass, Italian ryegrass, common wind-grass, Indian mallow, redroot pigweed, fig-leafed goosefoot, chickweed, catchweed, birds-eye speedwell, corn, soybean, rice, wheat, beet and rapeseed were each spot-sown, and covered with about 1.5 cm of soil, then the plants were grown in a greenhouse at 25 to 30° C.
# (§3) After they had grown for 14 days, emulsions of compounds of the present invention prepared according to compounding example 2 were diluted with water to give the specified dosages, and applied uniformly onto the stem and leaf parts with a small sprayer. 3 weeks after the pesticide treatment the effect on each type of plant was investigated on the basis of the assessment criteria of test example 1.
# (§4) A: barnyard grass, B: bulrush, C: oval-leafed pondweed, D: crabgrass, E: green foxtail, F: barnyard grass, G: wild oat, H: black-grass, I: Italian ryegrass, J: common wind-grass, K: Indian mallow, L: redroot pigweed, M: fig-leafed goosefoot, N: chickweed, O: catchweed, p: birds-eye speedwell, a: transplanted rice, b: directly sown rice, c: corn, d: soybean, e: wheat, f: beet, g: rapeseed
# (§5) Further, pesticide dosage (g/ha) indicates the concentration regulated such that treatment was with only the stated number of grams (g), when calculated per hectare (ha).
# [2] = system: bulrush; test: Test Example 1: weedkilling efficacy, preemergent weed treatment in the submerged state; B: bulrush; conditions: treatment dosage 252 g/ha
# In short: (§6)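 Pots of alluvial soil were flooded to a 4 cm depth. Mixed weed seeds were sown and 2.5 leaf-stage rice seedlings transplanted. On sowing day, water-diluted emulsion was applied to the water surface (dose in g/ha). After 3 weeks at 25–30 °C, effects were rated.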
# [3] = system: birds-eye speedwell; test: Test Example 4: weedkilling efficacy by foliar treatment; p: birds-eye speedwell; conditions: treatment dosage 315 g/ha
# Procedure: as §1, §2, §3, §4, §5
# [4] = system: beet; test: Test Example 4: foliar treatment, effect on crop; f: beet; conditions: treatment dosage 315 g/ha
# Procedure: as §1, §2, §3, §4, §5
# [5] = system: redroot pigweed; test: Test Example 3: weedkilling efficacy through soil treatment; L: redroot pigweed; conditions: treatment dosage 315 g/ha
# In short: (§7)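 Crop and weed responses were judged three weeks after a uniform surface spray of the water-diluted emulsion at the given g/ha rate. Seeds sat beneath about 1.5 cm of sterilized diluvial soil, and boxes stood in a greenhouse at 25 to 30° C.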
# [6] = system: transplanted rice; test: Test Example 1: preemergent weed treatment in the submerged state, effect on crop; a: transplanted rice; conditions: treatment dosage 252 g/ha
# In short: as §6
# [7] = system: oval-leafed pondweed; test: Test Example 2: weedkilling efficacy, growth period weed treatment in the submerged state; C: oval-leafed pondweed; conditions: treatment dosage 252 g/ha
# In short: (§8)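 Weeds treated at the 1-2 leaf stage by application of diluted emulsion onto floodwater (4 cm depth, alluvial soil) at specified g/ha. Grown in greenhouse at 25 to 30° C; herbicidal effect rated three weeks after treatment.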
# [8] = system: black-grass; test: Test Example 4: weedkilling efficacy by foliar treatment; H: black-grass; conditions: treatment dosage 315 g/ha
# Procedure: as §1, §2, §3, §4, §5
# [9] = system: chickweed; test: Test Example 3: weedkilling efficacy through soil treatment; N: chickweed; conditions: treatment dosage 315 g/ha
# In short: as §7
# [10] = system: redroot pigweed; test: Test Example 4: weedkilling efficacy by foliar treatment; L: redroot pigweed; conditions: treatment dosage 315 g/ha
# Procedure: as §1, §2, §3, §4, §5
# [11] = system: Indian mallow; test: Test Example 4: weedkilling efficacy by foliar treatment; K: Indian mallow; conditions: treatment dosage 315 g/ha
# Procedure: as §1, §2, §3, §4, §5
# [12] = system: directly sown rice; test: Test Example 4: foliar treatment, effect on crop; b: directly sown rice; conditions: treatment dosage 315 g/ha
# Procedure: as §1, §2, §3, §4, §5
# [13] = system: beet; test: Test Example 3: soil treatment, effect on crop; f: beet; conditions: treatment dosage 315 g/ha
# In short: as §7
# [14] = system: catchweed; test: Test Example 4: weedkilling efficacy by foliar treatment; O: catchweed; conditions: treatment dosage 315 g/ha
# Procedure: as §1, §2, §3, §4, §5
# [15] = system: corn; test: Test Example 3: soil treatment, effect on crop; c: corn; conditions: treatment dosage 315 g/ha
# In short: as §7
# [16] = system: Indian mallow; test: Test Example 3: weedkilling efficacy through soil treatment; K: Indian mallow; conditions: treatment dosage 315 g/ha
# In short: as §7
# [17] = system: oval-leafed pondweed; test: Test Example 1: weedkilling efficacy, preemergent weed treatment in the submerged state; C: oval-leafed pondweed; conditions: treatment dosage 252 g/ha
# In short: as §6
# [18] = system: soybean; test: Test Example 3: soil treatment, effect on crop; d: soybean; conditions: treatment dosage 315 g/ha
# In short: as §7
# [19] = system: crabgrass; test: Test Example 3: weedkilling efficacy through soil treatment; D: crabgrass; conditions: treatment dosage 315 g/ha
# In short: as §7
# [20] = system: barnyard grass; test: Test Example 2: weedkilling efficacy, growth period weed treatment in the submerged state; A: barnyard grass; conditions: treatment dosage 252 g/ha
# In short: as §8
# [21] = system: Italian ryegrass; test: Test Example 3: weedkilling efficacy through soil treatment; I: Italian ryegrass; conditions: treatment dosage 315 g/ha
# In short: as §7
# [22] = system: wheat; test: Test Example 3: soil treatment, effect on crop; e: wheat; conditions: treatment dosage 315 g/ha
# In short: as §7
# [23] = system: directly sown rice; test: Test Example 3: soil treatment, effect on crop; b: directly sown rice; conditions: treatment dosage 315 g/ha
# In short: as §7
# [24] = system: birds-eye speedwell; test: Test Example 3: weedkilling efficacy through soil treatment; p: birds-eye speedwell; conditions: treatment dosage 315 g/ha
# In short: as §7
# [25] = system: chickweed; test: Test Example 4: weedkilling efficacy by foliar treatment; N: chickweed; conditions: treatment dosage 315 g/ha
# Procedure: as §1, §2, §3, §4, §5
# [26] = system: fig-leafed goosefoot; test: Test Example 4: weedkilling efficacy by foliar treatment; M: fig-leafed goosefoot; conditions: treatment dosage 315 g/ha
# Procedure: as §1, §2, §3, §4, §5
# [27] = system: wheat; test: Test Example 4: foliar treatment, effect on crop; e: wheat; conditions: treatment dosage 315 g/ha
# Procedure: as §1, §2, §3, §4, §5
# [28] = system: crabgrass; test: Test Example 4: weedkilling efficacy by foliar treatment; D: crabgrass; conditions: treatment dosage 315 g/ha
# Procedure: as §1, §2, §3, §4, §5
# [29] = system: green foxtail; test: Test Example 3: weedkilling efficacy through soil treatment; E: green foxtail; conditions: treatment dosage 315 g/ha
# In short: as §7
# [30] = system: black-grass; test: Test Example 3: weedkilling efficacy through soil treatment; H: black-grass; conditions: treatment dosage 315 g/ha
# In short: as §7
# [31] = system: barnyard grass; test: Test Example 1: weedkilling efficacy, preemergent weed treatment in the submerged state; A: barnyard grass; conditions: treatment dosage 252 g/ha
# In short: as §6
# [32] = system: corn; test: Test Example 4: foliar treatment, effect on crop; c: corn; conditions: treatment dosage 315 g/ha
# Procedure: as §1, §2, §3, §4, §5
# [33] = system: soybean; test: Test Example 4: foliar treatment, effect on crop; d: soybean; conditions: treatment dosage 315 g/ha
# Procedure: as §1, §2, §3, §4, §5
# [34] = system: Italian ryegrass; test: Test Example 4: weedkilling efficacy by foliar treatment; I: Italian ryegrass; conditions: treatment dosage 315 g/ha
# Procedure: as §1, §2, §3, §4, §5
# [35] = system: fig-leafed goosefoot; test: Test Example 3: weedkilling efficacy through soil treatment; M: fig-leafed goosefoot; conditions: treatment dosage 315 g/ha
# In short: as §7
# [36] = system: bulrush; test: Test Example 2: weedkilling efficacy, growth period weed treatment in the submerged state; B: bulrush; conditions: treatment dosage 252 g/ha
# In short: as §8
structure (smiles),measurement,setting,value
CC1=C(c2ccc(Cl)s2)C(=O)N(C(C)(C)C(=O)Nc2cccc(Cl)n2)CO1 [B-2-02],E (green foxtail) weedkilling efficacy grade,[1],"3 (weed kill ratio 40% or more, less than 70%)"
same,B (bulrush) weedkilling efficacy grade,[2],"5 (weed kill ratio 90% or more, (practically complete withering))"
same,P (birds-eye speedwell) weedkilling efficacy grade,[3],"1 (weed kill ratio 5% or more, less than 20%)"
same,f (beet) effect on crop grade,[4],"3 (weed kill ratio 40% or more, less than 70%)"
same,L (redroot pigweed) weedkilling efficacy grade,[5],"3 (weed kill ratio 40% or more, less than 70%)"
same,a (transplanted rice) effect on crop grade,[6],0 (weed kill ratio 5% or less (practically no effect))
same,C (oval-leafed pondweed) weedkilling efficacy grade,[7],"5 (weed kill ratio 90% or more, (practically complete withering))"
same,H (black-grass) weedkilling efficacy grade,[8],"4 (weed kill ratio 70% or more, less than 90%)"
same,N (chickweed) weedkilling efficacy grade,[9],"3 (weed kill ratio 40% or more, less than 70%)"
same,L (redroot pigweed) weedkilling efficacy grade,[10],"4 (weed kill ratio 70% or more, less than 90%)"
same,K (Indian mallow) weedkilling efficacy grade,[11],0 (weed kill ratio 5% or less (practically no effect))
same,b (directly sown rice) effect on crop grade,[12],"4 (weed kill ratio 70% or more, less than 90%)"
same,f (beet) effect on crop grade,[13],0 (weed kill ratio 5% or less (practically no effect))
same,O (catchweed) weedkilling efficacy grade,[14],0 (weed kill ratio 5% or less (practically no effect))
same,c (corn) effect on crop grade,[15],0 (weed kill ratio 5% or less (practically no effect))
same,K (Indian mallow) weedkilling efficacy grade,[16],"3 (weed kill ratio 40% or more, less than 70%)"
same,C (oval-leafed pondweed) weedkilling efficacy grade,[17],"5 (weed kill ratio 90% or more, (practically complete withering))"
same,d (soybean) effect on crop grade,[18],0 (weed kill ratio 5% or less (practically no effect))
same,D (crabgrass) weedkilling efficacy grade,[19],"5 (weed kill ratio 90% or more, (practically complete withering))"
same,A (barnyard grass) weedkilling efficacy grade,[20],"5 (weed kill ratio 90% or more, (practically complete withering))"
same,I (Italian ryegrass) weedkilling efficacy grade,[21],"5 (weed kill ratio 90% or more, (practically complete withering))"
same,e (wheat) effect on crop grade,[22],"3 (weed kill ratio 40% or more, less than 70%)"
same,b (directly sown rice) effect on crop grade,[23],"2 (weed kill ratio 20% or more, less than 40%)"
same,P (birds-eye speedwell) weedkilling efficacy grade,[24],"2 (weed kill ratio 20% or more, less than 40%)"
same,N (chickweed) weedkilling efficacy grade,[25],0 (weed kill ratio 5% or less (practically no effect))
same,M (fig-leafed goosefoot) weedkilling efficacy grade,[26],"3 (weed kill ratio 40% or more, less than 70%)"
same,e (wheat) effect on crop grade,[27],0 (weed kill ratio 5% or less (practically no effect))
same,D (crabgrass) weedkilling efficacy grade,[28],"4 (weed kill ratio 70% or more, less than 90%)"
same,E (green foxtail) weedkilling efficacy grade,[29],"3 (weed kill ratio 40% or more, less than 70%)"
same,H (black-grass) weedkilling efficacy grade,[30],"5 (weed kill ratio 90% or more, (practically complete withering))"
same,A (barnyard grass) weedkilling efficacy grade,[31],"5 (weed kill ratio 90% or more, (practically complete withering))"
same,c (corn) effect on crop grade,[32],0 (weed kill ratio 5% or less (practically no effect))
same,d (soybean) effect on crop grade,[33],0 (weed kill ratio 5% or less (practically no effect))
same,I (Italian ryegrass) weedkilling efficacy grade,[34],"3 (weed kill ratio 40% or more, less than 70%)"
same,M (fig-leafed goosefoot) weedkilling efficacy grade,[35],0 (weed kill ratio 5% or less (practically no effect))
same,B (bulrush) weedkilling efficacy grade,[36],"5 (weed kill ratio 90% or more, (practically complete withering))"
